Counter-ions that a name gives are not always drawn. Like-named read-outs stand apart in the source and are kept apart here.
Legend:
Renal Hypertensive Rats = assay: Antihypertensive effects in renal hypertensive rats; type: in vivo; details: Rattus norvegicus; for minimal effective dose at 10 mg/kg / minimal effective dose at 100 mg/kg: Table 25; for minimal effective dose at 10 mg/kg / minimal effective dose at 3 mg/kg: intravenous; for minimal effective dose at 10 mg/kg: 10 mg/kg or less; for minimal effective dose at 100 mg/kg / minimal effective dose at 30 mg/kg: oral; for minimal effective dose at 100 mg/kg: 100 mg/kg or less; for minimal effective dose at 3 mg/kg / minimal effective dose at 30 mg/kg: Table 26
Method in brief: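 Renal hypertensive rats (renin-driven AII elevation) dosed orally at 100 mg/kg and/or i.v. via jugular cannula at 10 mg/kg; a second set used 30 mg/kg oral and 3 mg/kg i.v. Arterial pressure recorded continuously via carotid cannula and compared with pretreatment levels.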

AII receptor = assay: Angiotensin II receptor binding (displacement of 3H-AII); details: read-out: Angiotensin II Receptor Binding IC50, rat adrenal cortical microsomes, 2 nM 3H-AII, 1 hour, room temperature
Method in brief: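 The receptor source was rat adrenal cortical microsomes in Tris buffer, incubated with 2 nM ³H-AII plus or minus test compound for 1 h at room temperature. Bound and free ligand were separated by rapid filtration on glass-fibre filters. Filter-bound ³H-AII was counted by scintillation.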

[1] = Table 25, tested as sodium salt

| IC50 (AII receptor; Table 25) [nM] | IC50 (AII receptor; Table 26) [nM] | SMILES | minimal effective dose at 10 mg/kg (Renal Hypertensive Rats) [mg/kg] | minimal effective dose at 100 mg/kg (Renal Hypertensive Rats) [mg/kg] | minimal effective dose at 3 mg/kg (Renal Hypertensive Rats) [mg/kg] | further results |
| --- | --- | --- | --- | --- | --- | --- |
| – | – | CCCCc1nc(Cl)c(Cc2nnn[nH]2)n1Cc1ccc(C(=O)c2ccccc2C(=O)O)cc1 [Example 208, 2-Butyl-1-[4-(2-carboxybenzoyl)benzyl]-4-chloro-5-[(1H-tetrazol-5-yl)methyl]imidazole] | – | – | – | minimal effective dose at 10 mg/kg (Renal Hypertensive Rats; tested as sodium salt): < 10 mg/kg; minimal effective dose at 100 mg/kg (Renal Hypertensive Rats; tested as sodium salt): > 100 mg/kg; IC50 (AII receptor; [1]): 330 nM |
| – | – | CCCCc1nc(Cl)c(CNS(C)(=O)=O)n1Cc1ccc(C(=O)c2ccccc2C(=O)O)cc1 [Example 215] | – | – | – | minimal effective dose at 10 mg/kg (Renal Hypertensive Rats; tested as sodium salt): < 10 mg/kg; minimal effective dose at 100 mg/kg (Renal Hypertensive Rats; tested as sodium salt): > 100 mg/kg; IC50 (AII receptor; [1]): 200 nM |
| 110 | – | CCCCc1nc(Cl)c(/C=C/CO)n1Cc1ccc(NC(=O)c2ccccc2C(=O)O)cc1 [Example 227, 3-[1-(4-(2-Carboxybenzamido)-benzyl)-2-butyl-4-chloroimidazol-5-yl]-propen-1-ol, E isomer] | < 10 | – | – | – |
| 2100 | – | CCCCc1nc(Cl)c(/C=C/C(C)O)n1Cc1ccc(-c2ccccc2C(=O)OC)cc1 (stereo not drawn) [Example 229, 4-[1-(2'-Carbomethoxybiphenyl-4-yl)methyl-2-butyl-4-chloroimidazol-5-yl]-3-buten-2-ol, E isomer] | < 10 | < 100 | – | – |
| 1600 | – | CCCCc1nc(Cl)c(/C=C/c2ccccc2)n1Cc1ccc(NC(=O)c2ccccc2C(=O)O)cc1 [Example 230, 1-[4-(2-Carboxybenzamido)-benzyl]-2-butyl-4-chloro-5-(2-phenylethen-1-yl)imidazole, E isomer] | < 10 | – | – | – |
| 510 | – | CCCCc1nc(Cl)c(/C=C/COC(C)=O)n1Cc1ccc(NC(=O)c2ccccc2NS(=O)(=O)C(F)(F)F)cc1 [Example 232, 3-[1-(4-((N-Trifluoromethanesulfonyl)-anthranilamido)benzyl)-2-butyl-4-chloroimidazol-5-yl]-3-propen-1-ol acetate, E isomer] | < 10 | – | – | – |
| 600 | – | CCCCc1nc(Cl)c(/C=C/CO)n1Cc1ccc(NC(=O)c2ccccc2NS(=O)(=O)C(F)(F)F)cc1 [Example 233, 3-[1-(4-((N-trifluoromethanesulfonyl)-anthranilamido)benzyl)-2-butyl-4-chloroimidazol-5-yl]-propen-1-ol, E isomer] | < 10 | < 100 | – | – |
| 64 | – | CCCCc1nc(Cl)c(CCC(=O)OC)n1Cc1ccc(NC(=O)c2ccccc2C(=O)O)cc1 [Example 234, 3-[2-Butyl-4-chloro-1-(4-(2-carboxybenzamido)benzyl)imidazol-5-yl]-propanoic acid methyl ester] | < 10 | > 100 | – | – |
| 160 | – | CCCCc1nc(Cl)c(CCC(=O)OC)n1Cc1ccc(NC(=O)c2ccccc2NS(=O)(=O)C(F)(F)F)cc1 [Example 235, 3-[2-Butyl-4-chloro-1-(4-((N-trifluoromethanesulfonyl)anthranilamido)benzyl)imidazol-5-yl]-propanoic acid methyl ester] | < 10 | > 100 | – | – |
| 120 | – | CCCCc1nc(Cl)c(CC(C)C(=O)OC(C)C)n1Cc1ccc(NC(=O)c2ccccc2NS(=O)(=O)C(F)(F)F)cc1 (centres unmarked) [Example 237, 3-[1-(4-((N-trifluoromethanesulfonyl)anthranilamido)benzyl)-2-butyl-4-chlorimidazol-5-yl]-2-methylpropanoic acid, isopropyl ester] | < 10 | > 100 | – | – |
| 92 | – | CCCCc1nc(Cl)c(C(=O)O)n1Cc1ccc(-c2ccccc2C(=O)O)cc1 [Example 240, 1-[(2'-Carboxybiphenyl-4-yl)methyl]-2-butyl-4-chloroimidazole-5-carboxylicacid] | < 10 | – | – | – |
| – | 150 | CCCCc1nc(C(F)(F)F)c(C(=O)O)n1Cc1ccc(-c2ccccc2-c2nn[nH]n2)cc1 [Example 240A] | – | – | < 3 | minimal effective dose at 30 mg/kg (Renal Hypertensive Rats): < 30 mg/kg |
| 270 | – | CCCCc1nc(Cl)c(/C=C/C(=O)OC)n1Cc1ccc(NC(=O)c2ccccc2C(=O)O)cc1 [Example 242] | < 10 | – | – | – |
| 88 | – | CCCCc1nc(Cl)c(CCC(C)=O)n1Cc1ccc(NC(=O)c2ccccc2C(=O)O)cc1 [Example 244] | < 10 | – | – | – |
| 120 | – | CCCCc1nc(Cl)c(CC(C)C(=O)OC(C)C)n1Cc1ccc(NC(=O)c2ccccc2C(=O)O)cc1 (centres unmarked) [Example 246] | < 10 | – | – | – |
| 250 | – | CCCCc1nc(Cl)c(CCCOC(C)=O)n1Cc1ccc(NC(=O)c2ccccc2NS(=O)(=O)C(F)(F)F)cc1 [Example 248] | < 10 | – | – | – |
| 72 | – | CCCCc1nc(Cl)c(CCC(=O)N2CCOCC2)n1Cc1ccc(NC(=O)c2ccccc2C(=O)O)cc1 [Example 249] | < 10 | > 100 | – | – |
| 120 | – | CCCCc1nc(Cl)c(CCC(=O)N2CCOCC2)n1Cc1ccc(NC(=O)c2ccccc2NS(=O)(=O)C(F)(F)F)cc1 [Example 250] | < 10 | > 100 | – | – |

| IC50 (AII receptor; Table 25) [nM] | IC50 (AII receptor; Table 26) [nM] | SMILES | minimal effective dose at 10 mg/kg (Renal Hypertensive Rats) [mg/kg] | minimal effective dose at 100 mg/kg (Renal Hypertensive Rats) [mg/kg] | minimal effective dose at 3 mg/kg (Renal Hypertensive Rats) [mg/kg] | further results |
| --- | --- | --- | --- | --- | --- | --- |
| – | 45 | CCCc1nc(Cl)c(C(=O)O)n1Cc1ccc(-c2ccccc2-c2nn[nH]n2)cc1 [Example 251A] | – | – | < 3 | minimal effective dose at 30 mg/kg (Renal Hypertensive Rats): < 30 mg/kg |
| 250 | – | CCCCc1nc(Cl)c(CCC(=O)O)n1Cc1ccc(-c2ccccc2C(=O)O)cc1 [Example 264] | < 10 | < 100 | – | – |
| – | 1100 | CCCc1nc(C(F)(F)F)c(C(=O)O)n1Cc1ccc(-c2ccccc2-c2nn[nH]n2)cc1 [Example 265A] | – | – | < 3 | minimal effective dose at 30 mg/kg (Renal Hypertensive Rats): < 30 mg/kg |
| – | 1400 | CCCCc1nc(C(F)(F)C(F)(F)F)c(C(=O)O)n1Cc1ccc(-c2ccccc2-c2nn[nH]n2)cc1 [Example 265B] | – | – | < 3 | minimal effective dose at 30 mg/kg (Renal Hypertensive Rats): < 30 mg/kg |
| – | 1100 | CCCc1nc(C(F)(F)F)c(C(=O)O)n1Cc1ccc(-c2ccccc2C(=O)O)cc1 [Example 265D] | – | – | < 3 | – |
| – | 1600 | CCCc1nc(C(F)(F)C(F)(F)F)c(C(=O)O)n1Cc1ccc(-c2ccccc2C(=O)O)cc1 [Example 265E] | – | – | < 3 | – |
| 270 | – | CCCCc1nc(Cl)c(CCCC(=O)O)n1Cc1ccc(-c2ccccc2C(=O)O)cc1 [Example 265] | < 10 | < 100 | – | – |
| 2300 | – | CCC/C=C\c1nc(Cl)c(CO)n1Cc1ccc(-c2ccccc2C(=O)O)cc1 [Example 266, 1-[(2-Carboxybiphenyl-4-yl)-methyl]-4-chloro-5-hydroxymethyl-2-(cis-pent-1-en-1-yl)imidazole] | < 10 | – | – | – |
| 700 | – | CCCCc1nc(Cl)c(CCCF)n1Cc1ccc(-c2ccccc2C(=O)O)cc1 [Example 292] | < 10 | < 100 | – | – |
| – | 64 | CCCCc1nc(C(F)(F)F)c(C(=O)OCOC(=O)C(C)(C)C)n1Cc1ccc(-c2ccccc2-c2nn[nH]n2)cc1 [Example 314A] | – | – | < 3 | minimal effective dose at 30 mg/kg (Renal Hypertensive Rats): < 30 mg/kg |
| 630 | – | CCCCc1nc(Cl)c(C=CCO)n1Cc1ccc(-c2ccccc2C(=O)O)cc1 [Example 314] | < 10 | > 100 | – | – |
| – | 410 | CCCCc1nc(Cl)c(C(O)c2ccccc2)n1Cc1ccc(-c2ccccc2-c2nn[nH]n2)cc1 (stereo not drawn) [Example 317A, α-[2-n-butyl-4-chloro-1-[(2'-(1H-tetrazol-5-yl)biphenyl-4-yl)methyl]imidazol-5-yl]-α-phenylmethanol] | – | – | < 3 | minimal effective dose at 30 mg/kg (Renal Hypertensive Rats): > 30 mg/kg |
| – | 91 | CCCCc1nc(Cl)c(CO)n1Cc1ccc(-c2ccccc2C(=O)NS(=O)(=O)c2ccccc2C)cc1 [Example 319] | – | – | < 3 | minimal effective dose at 30 mg/kg (Renal Hypertensive Rats): > 30 mg/kg |
| – | 880 | CCCc1nc(C)c(C=O)n1Cc1ccc(-c2ccccc2C(=O)O)cc1 [Example 320, 1-[(2'-Carboxybiphenyl-4-yl)methyl]-4-methyl-2-propylimidazole-5-carboxaldehyde] | – | – | < 3 | minimal effective dose at 30 mg/kg (Renal Hypertensive Rats): < 30 mg/kg |
| – | 1800 | CCCc1nc(C)c(CO)n1Cc1ccc(-c2ccccc2C(=O)O)cc1 [Example 321, 1-[(2'-Carboxybiphenyl-4-yl)methyl]-5-hydroxymethyl-4-methyl-2-propylimidazole.hydrochloride] | – | – | < 3 | minimal effective dose at 30 mg/kg (Renal Hypertensive Rats): > 30 mg/kg |
| 730 | – | CCCCc1nc(Cl)c(CO)n1-c1ccc(NC(=O)c2ccccc2NS(=O)(=O)C(F)(F)F)cc1 [Example 325, 2-n-Butyl-4-chloro-5-hydroxymethyl-1-[4-((N-trifluoromethanesulfonyl)-anthranilamido)phenyl]imidazole] | < 10 | – | – | – |
| 790 | – | CCCCc1ncc(CO)n1-c1ccc(NC(=O)c2ccccc2NS(=O)(=O)C(F)(F)F)cc1 [Example 326, 2-n-butyl-5-hydroxymethyl-1-[4-((N-trifluoromethanesulfonyl)anthranilamido)phenyl]imidazole] | < 10 | – | – | – |

From patent US5138069A (E. I. Du Pont de Nemours and Company, priority 1988, dated 1992)
